Source: patent publication US20150110849A1, “ANTIMICROBIAL ACCESSORY FOR AN IMPLANTABLE MEDICAL DEVICE” (Medtronic, Inc., priority 2009, published 2015)
Structures can show the parent of a compound that is named as a salt.

Test: zone of inhibition (ZOI) of antimicrobial accessories
Format: cell-based
Source text: Examples 30-54 illustrate zone of inhibition (ZOI) data collected for antimicrobial accessories including minocycline HCl and/or rifampin. Various polymers and excipients were used in combination with minocycline HCl and/or rifampin. […] In Table 22, M stands for minocycline HCl, R stands for rifampin, SiO2 is silica, PVP is polyvinylpyrrolidone, BIO-PSA 7-4601 is a silicone PSA available from Dow Corning Corp, Midland, Mich., MDX4-4210 is a liquid silicone rubber available from Dow Corning, Corp., Midland, Mich., LSR Q7-4850 is a liquid silicone rubber available from Dow Corning, Corp., Midland, Mich., and MED-1137 a silicone adhesive available from NuSil Silicone Technology, Carpinteria, Calif.

With `CN(C)c1ccc(O)c2c1C[C@H]1C[C@H]3[C@H](N(C)C)C(O)=C(C(N)=O)C(=O)[C@@]3(O)C(O)=C1C2=O` [Example 30, minocycline HCl] the “Average ZOI” value was 16 mm.
For `CO[C@H]1/C=C/O[C@@]2(C)Oc3c(C)c(O)c4c(O)c(c(/C=N/N5CCN(C)CC5)c(O)c4c3C2=O)NC(=O)/C(C)=C\C=C\[C@H](C)[C@H](O)[C@@H](C)[C@@H](O)[C@@H](C)[C@H](OC(C)=O)[C@@H]1C` [Example 31, rifampin], the “Average ZOI” value was 17 mm.
